Test results taken from US11365170B2, “Non-solvate crystal of eucomic acid and method for producing same” (KYOWA HAKKO BIO CO., LTD., priority 2018, dated 2022).

Assays:
Assay type in all cases: physicochemical
[1] = Methanol content in crystal, except methanol adhering to the crystal surface, by thermal analysis; settings: excluding surface-adhering methanol
From the text: The fact that the methanol solvate crystal of eucomic acid is a mono-methanol solvate crystal can be confirmed by the fact that a methanol content in the crystal except for methanol adhering to a crystal surface thereof is generally 7.0 to 14.0 wt %, preferably 9.0 to 11.0 wt %.
The methanol content in the crystal except for the methanol adhering to the crystal surface can be measured by, for example, thermal analysis described in the following measurement example.
Measurement Example of Methanol Content in Crystal by Thermal Analysis
Used equipment: EXSTAR 6000 TG/DTA 6200 (manufactured by Seiko Instruments Inc.)
Measurement conditions: Temperature rises from 20° C. to 30° C. at 20° C./min→Hold for 15 minutes at 30° C.→Temperature rises from 30° C. to 250° C. at 5° C./min
Nitrogen flow rate: 300 mL/min

[2] = Methanol content (residual methanol) measured using a gas chromatograph; settings: value includes methanol adhering to the crystal surface
Description: Analysis Example Using Gas Chromatograph
Used equipment: GC-2014 (manufactured by Shimadzu Corporation)
Column: AGILENT J&W DB-WAX 30 m×0.535 mm×1.00 μm (Agilent Technologies, Inc.)
Column temperature: 200° C.
By analysis using HPLC, it was confirmed that the crystal was a crystal of eucomic acid. […] The methanol content is a value including methanol adhering to the crystal surface. The methanol content in the crystal except for the methanol adhering to the crystal surface was 9.0 wt %. It was considered from this that the crystal was a mono-methanol solvate crystal of eucomic acid.
Subsequently, the obtained methanol solvate crystal of eucomic acid was heated and dried at 100° C. for 9 hours at normal pressure. By analysis using HPLC, it was confirmed that the crystal after heating and drying was a crystal of eucomic acid. […] As a result of measuring residual methanol using a gas chromatograph, a methanol content of the crystal was 0.14 wt %. It was found from the above that the crystal was a non-solvate crystal of eucomic acid.

[3] = Uniformity coefficient from particle size distribution measurement; settings: ratio of 60% passing to 10% passing particle diameter; closer to 1 = higher fluidity
From the text: The uniformity coefficient is an index representing fluidity of the powder, and refers to a ratio obtained by dividing a particle diameter through which the powder in an amount of 60% passes by a particle diameter through which the powder in an amount of 10% passes on a cumulative particle diameter distribution curve measured by particle size distribution measurement or sieve division. The closer the value of the uniformity coefficient is to 1, the higher the fluidity is.
The uniformity coefficient can be measured in accordance with the accompanying manual using, for example, a particle size distribution measuring device LS 13 32 (manufactured by Beckman Coulter, Inc.).

[4] = Angle of repose measurement (Multi Tester MT-1001T); settings: sieve 1.18 mm, vibration width 0.5 to 0.6 mm; mean of three sites
From the text: The angle of repose refers to an angle formed by a generating line of a cone formed with a powder when the powder is allowed to gently fall onto the horizontal plane through a kind of funnel and a horizontal plane.
The angle of repose can be measured using Multi Tester MT-1001T (manufactured by Seishin Enterprise Co, Ltd.) in accordance with the accompanying manual according to the following measurement example.
Measurement Example of Angle of Repose
Used equipment: multi-tester MT-1001T type (manufactured by Seishin Enterprise Co., Ud.)
Vibration width: 0.5 to 0.6 mm
Measurement method: Crystals are allowed to fall by passing through a sieve of 1.18 mm that is vibrated with a width of 0.5 to 0.6 mm, and are deposited on an angle-of-repose table (part number: MT-1029). The angle-of-repose table is rotated without being given vibration, angles are read at three sites, and an arithmetic mean value of the angles is determined to be the angle of repose.

[5] = Water content by Karl Fischer method; settings: crystal after heating and drying at 100° C. for 9 hours
Description: Measurement Example by Karl Fischer Method
Used equipment: AQV-2200 (HIRANUMA SANGYO Co., Ltd.)
Measurement method: The water content in the crystal is measured in accordance with instructions for use of AQV-2200 (HIRANUMA SANGYO Co., Ltd.)

Methanol content in the crystal except for the methanol adhering to the crystal surface [1] [wt %]	Methanol content [2] [wt %]	Methanol content ([2]; listed as methanol solvate crystal of eucomic acid) [wt %]	Uniformity coefficient [3]	Angle of repose [4] [degree]	Methanol content ([2]; listed as non-solvate crystal of eucomic acid) [wt %]	Water content (hydrated water) [5]	Structure (SMILES)
9.0	28.1	28.1	4.25	45.7			O=C(O)C[C@](O)(Cc1ccc(O)cc1)C(=O)O [Methanol solvate crystal, (R)-2-hydroxy-2-[(4-hydroxyphenyl)methyl]butanedioic acid]
	0.14		3.36	39.0	0.14	did not contain hydrated water	O=C(O)C[C@](O)(Cc1ccc(O)cc1)C(=O)O [Non-solvate crystal, (R)-2-hydroxy-2-[(4-hydroxyphenyl)methyl]butanedioic acid]
